In brackets after ≈: the same amount, converted by molar mass. Where two headings read alike, the source gives them in different places.
Key:
resting PK-15 cells = assay: Mitochondrial damage test: accelerated glucose consumption and extracellular acidosis; format: cell-based, porcine
Method: The mitochondria were depolarized in sperm cells exposed to sublethal concentrations of chaetoglobosin A (Figure 5) and to the chaetoglobosin-containing extracts (Table 3). This observation aroused the suspicion regarding mitochondrial toxicity. The mitochondrial toxicity of the extracts containing chaetoglobosin was assessed by measuring the accelerated glucose consumption in resting PK-15 cells. […] By contrast, the positive controls for mitochondrial toxicity—enniatin B, moniliformin and valinomycin at sublethal concentrations of 1.5, 4 and 5 ng mL^−1, respectively—promoted the acceleration of glycolysis.
The test for mitochondrial damage as indicated by accelerated glucose consumption and extracellular acidosis was described earlier. The PK-15 cells were grown in 8-well flat-bottom chamber glass slides, seeded to a density of 4 × 10^4 cells mL^−1, in the respective medium for 48 h. The twofold serially diluted test substances or the vehicle only was dispensed into the wells. The glucose content of the wells was measured by using a glucose meter (Precision Xceed; Abbott Diabetes Care Ltd., Berkshire, United Kingdom). In wells that received nothing or the vehicle only, the glucose concentration decreased from an initial concentration (0 h) of 12 to 6 mM (24 h), but the pH remained as pH of 7.2. A glucose concentration after 24 h of ≤3 mM indicated excessive glucose consumption. Prior to the measurement of the pH, the chamber slides were transferred into ambient air for 1 h to allow CO2 to evaporate. A pH drop of 0.5 units in the toxin-exposed well compared to the vehicle only was considered proof of acidosis. Mitochondrial depolarization (ΔΨm assay) was read by a fluorescence microscope after 26 h of exposure to the toxicants from the monolayers double stained with the membrane potential-responsive fluorogenic dye JC-1 and with propidium iodide to assess the relaxing of the plasma membrane permeability barrier, similar to what was reported previously for sperm cells (27).

boar spermatozoa [1] = assay: cells; format: cell-based; details: Spermatozoa; motile boar sperm, 2 h, 37 °C; read-out: EC50 SMIDM Boar Sperm 2 h
resting boar spermatozoa [2] = assay: Plasma membrane integrity of resting spermatozoa (SMIDR), calcein-AM + PI; format: cell-based; details: Spermatozoa, 48 h; resting boar sperm, 24 °C, 2 days; read-out: EC50 Lethal Toxicity SMIDR 2 days
Method: (§1) The long-term effects of exposure to chaetoglobosin A and to the chaetoglobosin-containing extracts of the Ch. globosum MTAV35 and MTAV37 strains were measured in resting sperm cells exposed at 24 °C for two days. Three criteria were assessed: (1) the motility inhibition of resting boar spermatozoa (BSMIR); (2) the change in mitochondrial membrane potential (ΔΨ) observed using the potentiometric dye JC-1; and (3) the plasma membrane integrity (SMIDR) observed using the viability stain calcein-AM + propidium iodide (PI). […] By contrast, the EC50 concentrations in the SMIDR assays, which measured the lethal damages in plasma membrane after incubation for two days, were >50 times higher (Figure 5 and Table 3).
(§2) The boar sperm cells exposed for 2 days to commercial chaetoglobosin A and the crude extract of MTAV35 and MTAV37 were double-stained with the viability stains PI + calcein–AM, the SMIDR assay, as described earlier. The staining protocol was as follows: 200 μL of extended boar semen containing 27 × 10^6 sperm cells mL^−1 was mixed with 200 μL PBS containing 3 μg mL^−1 calcein-AM and 10 μg mL^−1 PI. The ΔΨm assay monitored the mitochondrial membrane potential changes (ΔΨm) by staining with the lipophilic potentiometric dye JC-1 as described by Mikkola et al. (2015). For the staining with JC-1 (35 µg mL^−1), 200 µL of the sperm cells were shaken and incubated at 37 °C for 5 min. After staining, the cells exposed in the SMIDR and the ΔΨm assays were inspected with fluorescence microscope using 400× magnification (Nikon Eclipse E600, Nikon Corporation, Tokyo Japan) with filters BP 450–490 nm/LP 520. The calcein–AM-stained cells with intact plasma membranes produced green fluorescence, whereas the PI-dyed cells with damaged plasma membranes produced red fluorescence. In JC-1 stained sperm cells, mitochondria with high membrane potential emitted yellow fluorescence, whereas depolarized mitochondria fluoresced green.
(§3) The EC50 concentration in these microscopic assays was defined as the lowest concentration where the ratio of cells similar to those in the solvent control was less than 50%. This EC50 fitted between EC90 and EC10 observed in the microscope calculating ca. 100–120 sperm cells from three microscopic fields. The maximal difference between four parallel tests in each of the two methods was one dilution step. The assays were calibrated with triclosan.

resting boar spermatozoa [3] = assay: Motility inhibition of resting boar spermatozoa (BSMIR); format: cell-based; details: resting boar sperm, 24 °C, 2 days
Method: as §1, with “Three” for “The long-term effects of exposure to chaetoglobosin A and to the chaetoglobosin-containing extracts of the Ch. globosum MTAV35 and MTAV37 strains were measured in resting sperm cells exposed at 24 °C for two days. Three”
The procedure for the BSMIR assay measuring sublethal toxicity as motility inhibition, i.e., inability to respond to induction of motility in resting sperm cells is described below: The ethanol solutions (0.5–10 μL) were dispensed in 2000 μL of extended boar semen (Figen Ltd., Tuomikylä, Finland, density of 27 × 10^6 sperms mL^−1) incubated at 24 °C, and motility of the sperms was inspected in the phase-contrast microscope (400× magnification) with a heated stage, (Olympus CKX41, Tokyo, Japan; magnification 400×) and an image recording software (Cellsense® standard version 11.0.06, Olympus Soft Imaging Solutions GmbH, Münster, Germany, 2012) as described previously. […] The EC50 was calculated from the equation of the straight line between EC50-40 and EC80-90: Y = −ΔY/ΔX × X + C where Y is the motility closest to 50% of the motility of the solvent control, X is the EC50 concentration and C is a constant between 100% and 60%. All tests were run in triplicates and differences between replicate tests were within one dilution step (2-fold). The sperm assays were calibrated with triclosan and valinomycin.

boar spermatozoa [4] = assay: cells; format: cell-based; details: Spermatozoa, 20 min; motile boar sperm, 20 min, 37 °C; read-out: EC50 BSMIM Boar Sperm 20 min
resting boar spermatozoa [5] = assay: Mitochondrial membrane potential (ΔΨm) assay with JC-1 in resting spermatozoa; format: cell-based
Method: as §1, with “Three” for “The long-term effects of exposure to chaetoglobosin A and to the chaetoglobosin-containing extracts of the Ch. globosum MTAV35 and MTAV37 strains were measured in resting sperm cells exposed at 24 °C for two days. Three”
as §2, §3

**Q.** Which results are given for `C/C1=C\[C@@H](C)C/C=C/[C@H]2[C@@H]3O[C@]3(C)[C@@H](C)[C@H]3[C@H](Cc4c[nH]c5ccccc45)NC(=O)[C@]32C(=O)/C=C/C(=O)[C@@H]1O` [Chaetoglobosin A, chaetoglobosin A]?
**A.** EC50 Sublethal Toxicity Acceleration of glycolysis 1 day (resting PK-15 cells; PK-15, 1 day): None; EC50 Sublethal Toxicity Acidosis 2 days (resting PK-15 cells; PK-15, 2 days): None; EC50 (boar spermatozoa [1]): 12 µg/mL (≈ 22.7 µM); CC50 (resting boar spermatozoa [2]): > 20 µg/mL; EC50 Sublethal Toxicity BSMIR 2 days (resting boar spermatozoa [3]): 1 µg/mL (≈ 1.89 µM); EC50 (boar spermatozoa [4]): 1 µg/mL (≈ 1.89 µM); EC50 (resting boar spermatozoa [5]; Spermatozoa, 48 h, read-out: EC50 Sublethal Toxicity Depletion of ΔΨm 2 days, resting boar sperm, JC-1, 2 days): 3 to 4 µg/mL (≈ 5.67 to 7.57 µM); EC50 Sublethal Toxicity Depletion of ΔΨm 2 days (resting boar spermatozoa [5]; resting boar sperm, JC-1, 2 days): 2 µg/mL

Source: PMC7405012, “Detection of Chaetomium globosum, Ch. cochliodes and Ch. rectangulare during the Diversity Tracking of Mycotoxin-Producing Chaetomium-like Isolates Obtained in Buildings in Finland” (Toxins, 2020)
